In publication PMC6008299, “Impact of race on dose selection of molecular-targeted agents in early-phase oncology trials” (British Journal of Cancer, 2018):

Legend:
Type in all cases: in vivo, human
[1] = test system: tumour [18F]-FDG uptake; experiment: [18F]-FDG-PET metabolic response, Japanese (Asian) patients; conditions: day 4
Method: (§1) In both studies, the PK profile of DS-7423 was characterised during cycle 1 on days 1 and 8. For PD analysis, glucose, C-peptide, and Akt phosphorylation were measured in platelet-rich plasma collected at predose, 1, 2, 4, 6, and 24 h after dosing on days 1 and 15. Tumour assessment was performed every two cycles using Response Evaluation Criteria in Solid Tumours (RECIST) version 1.1 in both studies. 18F-Fluoro-2-deoxy-D-glucose positron emission tomography ([18F]-FDG) was performed as an exploratory endpoint at baseline and on day 4.[10]

[2] = Pharmacokinetics in Japanese cohort (J102)
Method: as §1
(§2) The data cut-off for the primary analysis occurred after all patients had either discontinued the study or completed 6 months of study drug treatment. Descriptive statistics were provided for selected demographic, safety, PK, and PD data by dose and time as appropriate. Descriptive statistics on continuous data included means, medians, standard deviations, and ranges, while categorical data were summarised using frequency counts and percentages. No inferential analysis to compare dose levels was performed due to limited sample sizes. The WinNonlin software was used for PK analysis.

[3] = test system: patients with advanced, refractory solid tumours; experiment: US and Japanese phase I studies combined: safety
Method: We conducted two independent, prospective, first-in-human phase I studies of DS-7423, a dual PI3K/mTOR inhibitor, in patients with advanced, refractory solid tumours in the US (U101 study) and Japan (J102 study); age ≥18 years in the US and ≥20 years in Japan; and Eastern Cooperative Oncology Group performance status (ECOG PS) 0–1. Key exclusion criteria included fasting glucose >126 mg/dL (>7 mmol/L); HbA1c >7.0% for the US and HbA1c >6.5% for Japan; history of diabetes mellitus (type I or II); concomitant use of chronic systemic corticosteroids, or prior toxicities from a dual PI3K/mTOR inhibitor (Supplementary Table 1). Studies were approved by the Institutional Review Board at the participating institutions and regulatory authorities. Written informed consent in English and Japanese was obtained from all patients prior to enrollment. The study followed the Declaration of Helsinki and good clinical practice guidelines and was registered with ClinicalTrials.gov (NCT01364844) and with ClinicalTrials.jp (Japic CTI, 12766).
The primary objective was to assess the safety and tolerability to determine the MTD and RP2D of DS-7423 in US and Japanese patients. Secondary and exploratory objectives were to evaluate PK, tumour response, and PD effects. Treatment-emergent adverse events (TEAE) were graded using the Common Terminology Criteria for Adverse Events version 4.0. A dose-limiting toxicity (DLT) was defined as a grade ≥3 clinically significant toxicity, with the exceptions of grade ≥4 anaemia and prolonged grade 3 neutropenia. Both studies were open-label, phase I dose-escalation studies. In Japan, the study was conducted at a single centre, while the US study was conducted at three sites. In Japan, dose escalation of DS-7423 was guided by the modified continuous reassessment method (mCRM) using a Bayesian logistic regression model following the escalation with overdose control (EWOC) principle at a starting dose of 4 mg once daily.[9] In the US, an accelerated titration design was used at low doses followed by a mCRM with EWOC. Briefly, the dose was escalated based on safety data in a single patient until a grade 2 or higher toxicity was observed during cycle 1 or the DLT period (days 1–28). In both studies, DS-7423 was administered orally once daily until patients experienced unacceptable treatment-related toxicity or disease progression. Prophylactic granulocyte colony-stimulating factor and antiemetics were not permitted during cycle 1.

[4] = Pharmacokinetics, both studies
From the text: as §2, with “In both studies, the PK profile of DS-7423 was characterised during cycle 1 on days 1 and 8. […] The data” for “The data”

[5] = test system: advanced solid tumours; experiment: Tumour assessment RECIST 1.1, both studies; conditions: either study
Method: as §1

[6] = test system: tumour [18F]-FDG uptake; experiment: [18F]-FDG-PET metabolic response, US (Caucasian) patients; conditions: day 4
Method: as §1

[7] = dose level 4, Japanese cohort (n = 3)
[8] = dose level 8, Japanese cohort (n = 3)
[9] = dose level 16, Japanese cohort (n = 2)
[10] = dose level 160, Japanese cohort (n = 3)
[11] = dose level 240, Japanese cohort (n = 5)

CC(=O)N1CCN(c2nc3c(N4CCOCC4)nc(-c4cnc(N)nc4)nc3n2CC(F)(F)F)C[C@H]1C [DS-7423]
Patients with partial metabolic response ([18F]-FDG-PET) [1]: 36.4%
Patients with partial metabolic response ([18F]-FDG-PET) ([1]; of 11 patients): 4
Mean AUCtau [2, 7]: 31.1 ng·h/mL
Mean Cmax [2, 7]: 3 ng/mL
T1/2 [2, 7]: 6 to 7 h
Tmax [2, 7]: 2 to 4 h
Mean AUCtau [2, 8]: 84.2 ng·h/mL
Mean Cmax [2, 8]: 10 ng/mL
T1/2 [2, 8]: 6 to 7 h
Tmax [2, 8]: 2 to 4 h
Mean AUCtau [2, 9]: 178 ng·h/mL
Mean Cmax [2, 9]: 18 ng/mL
T1/2 [2, 9]: 6 to 7 h
Tmax [2, 9]: 2 to 4 h
Mean AUCtau [2, 10]: 1223.3 ng·h/mL
Mean Cmax [2, 10]: 61 ng/mL
T1/2 [2, 10]: 6 to 7 h
Tmax [2, 10]: 2 to 4 h
Mean AUCtau [2, 11]: 1184.8 ng·h/mL
Mean Cmax [2, 11]: 83.6 ng/mL
T1/2 [2, 11]: 12 h
Tmax [2, 11]: 2 to 4 h
AST increased (TEAE), incidence ([3]; All (n = 69)): 10.1%
AST increased (TEAE), n patients ([3]; All (n = 69)): 7
Abdominal pain (TEAE), incidence ([3]; All (n = 69)): 14.5%
Abdominal pain (TEAE), n patients ([3]; All (n = 69)): 10
Back pain (TEAE), incidence ([3]; All (n = 69)): 15.9%
Back pain (TEAE), n patients ([3]; All (n = 69)): 11
Blood creatinine increased (TEAE), incidence ([3]; All (n = 69)): 10.1%
Blood creatinine increased (TEAE), n patients ([3]; All (n = 69)): 7
Constipation (TEAE), incidence ([3]; All (n = 69)): 18.8%
Constipation (TEAE), n patients ([3]; All (n = 69)): 13
Cough (TEAE), incidence ([3]; All (n = 69)): 15.9%
Cough (TEAE), n patients ([3]; All (n = 69)): 11
Decreased appetite (TEAE), incidence ([3]; All (n = 69)): 49.3%
Decreased appetite (TEAE), n patients ([3]; All (n = 69)): 34
Dehydration (TEAE), incidence ([3]; All (n = 69)): 8.7%
Dehydration (TEAE), n patients ([3]; All (n = 69)): 6
Diarrhoea (TEAE), incidence ([3]; All (n = 69)): 56.5%
Diarrhoea (TEAE), n patients ([3]; All (n = 69)): 39
Dry mouth (TEAE), incidence ([3]; All (n = 69)): 18.8%
Dry mouth (TEAE), n patients ([3]; All (n = 69)): 13
Dysgeusia (TEAE), incidence ([3]; All (n = 69)): 27.5%
Dysgeusia (TEAE), n patients ([3]; All (n = 69)): 19
Edema (TEAE), incidence ([3]; All (n = 69)): 17.4%
Edema (TEAE), n patients ([3]; All (n = 69)): 12
Fatigue (TEAE), incidence ([3]; All (n = 69)): 55.1%
Fatigue (TEAE), n patients ([3]; All (n = 69)): 38
Hyperglycaemia (TEAE), incidence ([3]; All (n = 69)): 17.4%
Hyperglycaemia (TEAE), n patients ([3]; All (n = 69)): 12
Lung infection/ pneumonia (TEAE), incidence ([3]; All (n = 69)): 5.8%
Lung infection/ pneumonia (TEAE), n patients ([3]; All (n = 69)): 4
Nausea (TEAE), incidence ([3]; All (n = 69)): 56.5%
Nausea (TEAE), n patients ([3]; All (n = 69)): 39
Pyrexia (TEAE), incidence ([3]; All (n = 69)): 14.5%
Pyrexia (TEAE), n patients ([3]; All (n = 69)): 10
Rash (TEAE), incidence ([3]; All (n = 69)): 33.3%
Rash (TEAE), n patients ([3]; All (n = 69)): 23
Stomatitis (TEAE), incidence ([3]; All (n = 69)): 33.3%
Stomatitis (TEAE), n patients ([3]; All (n = 69)): 23
Vomiting (TEAE), incidence ([3]; All (n = 69)): 37.7%
Vomiting (TEAE), n patients ([3]; All (n = 69)): 26
RP2D ([3]; US and Japan phase I studies, oral once daily): 240 mg/day
DS-7423-related ≥grade 3 TEAE ([3]; all cohorts): rare
Grade of nausea, vomiting, and dysgeusia events ([3]; all cohorts): grade 1 or 2
median half-life ([4]; 240-mg dose (MTD)): 12 h
Difference in AUC and Cmax between the two populations ([4]; MTD of 240 mg, Caucasian vs Asian): no significant differences
median time to peak concentration (Tmax) ([4]; across dose groups): 2 to 4 h
Drug accumulation ([4]; predose concentrations days 15 and 21 of cycle 1 and day 1 of cycle 2): no remarkable drug accumulation
Response by RECIST 1.1 [5]: no PR or CR
Patients with partial metabolic response ([18F]-FDG-PET) [6]: 48.5%
Patients with partial metabolic response ([18F]-FDG-PET) ([6]; of 33 patients): 16
